Where “and” joins values, the source holds several entries; their conditions need not be identical. Equal values may be shown once. Where a SMILES comes first, the peptide text is derived from it.

In the experiment the test system is lipase. The experiment can be described thus: Lipase/lipolysis assay (EnzChek Lipase Substrate, quenched BODIPY-fatty acid conjugate) on stored human milk. Further: test concentration or dose not given here.
As for `CC(C)[C@@H](C)[C@@H](O)[C@H](O)[C@@H](C)[C@H]1CC[C@H]2[C@@H]3COC(=O)[C@H]4C[C@H](O)[C@H](O)C[C@]4(C)[C@H]3CC[C@]12C` [Epibrassinolide], the “Lipase (RFU)” value is on record as 830.2794 RFU.

For `NC(=O)Cc1ccccc1` [Compound 2-Phenylacetamide, 2-Phenylacetamide], the “Lipase (RFU)” value is reported as 955.8815 RFU.

Take `OC[C@H]1O[C@@H](O[C@H]2[C@H](O)[C@@H](O)[C@@H](O)O[C@@H]2CO)[C@H](O)[C@@H](O)[C@H]1O` [Lactose]: the “Lipase (RFU)” value turned out to be 912.5223 RFU.

In the case of `COc1cc2c(cc1O)C[C@H]1c3c(cc(O)c(OC)c3-2)CCN1C` [Boldine], the “Lipase (RFU)” value worked out at 931.6237 RFU.

Take `COC(=O)c1ccc(OC)cc1` [Methyl anisate]: the “Lipase (RFU)” value was 1101.708 RFU and 911.2014 RFU.

For the compound Maltotetraose, the “Lipase (RFU)” value was found to be 824.2713 RFU.

As for `O=C(CO)[C@H](O)[C@H](O)[C@H](O)CO` [D-Psicose], the “Lipase (RFU)” value is 990.8733 RFU.

Pseudoginsenoside F11: the “Lipase (RFU)” value came to 810.4484 RFU.

`CC1(C)C[C@H]2C3=CC[C@@H]4[C@@]5(C)CC[C@H](O)[C@](C)(CO)[C@@H]5CC[C@@]4(C)[C@]3(C)CC[C@@]2(C)[C@H](O)[C@@H]1O` [Soyasapogenol A]: the “Lipase (RFU)” value was found to be 1098.785 RFU.

`CC(O)CN` (centres unmarked) [Compound 1-Aminopropan-2-ol, 1-Aminopropan-2-ol]: the “Lipase (RFU)” value is 1021.874 RFU and 806.2549 RFU.

For the compound `N[C@@H](C(=O)O)[C@@H](O)[C@H](O)[C@H](O)CO` [D-Glucosaminic Acid], the “Lipase (RFU)” value came to 794.5821 RFU.

`O=C([O-])C(O)Cc1ccc(O)c(O)c1.[Na+]` (centres unmarked) [Danshensu (sodium salt)]: the “Lipase (RFU)” value turned out to be 948.7665 RFU.

Take `O=C1CCCCCCCCCCCCCCO1` [ω-Pentadecalactone]: the “Lipase (RFU)” value is listed as 959.0542 RFU.

With `O=C1CC(C(=O)O)c2c1oc(=O)c1cc(O)c(O)c(O)c21` (centres unmarked) [Brevifolincarboxylic acid], the “Lipase (RFU)” value is 760.1752 RFU.

On to Rebaudioside A, for which the “Lipase (RFU)” value was 1278.993 RFU.

Turning to `COc1cc2c(cc1OC)-c1c(OC)c(OC)cc3c1[C@H](C2)N(C)CC3` [Glaucine], the “Lipase (RFU)” value was determined as 922.5844 RFU.

For the compound `OC[C@H]1O[C@H](OC[C@H]2O[C@H](O[C@]3(CO)O[C@H](CO)[C@@H](O)[C@@H]3O)[C@H](O)[C@@H](O)[C@@H]2O)[C@H](O)[C@@H](O)[C@H]1O` [D-Raffinose], the “Lipase (RFU)” value is listed as 981.0683 RFU.

As to `Nc1ncnc2c1ncn2[C@@H]1O[C@H](COP(=O)(O)O)[C@@H](O)[C@H]1O.O` [Adenosine 5′-monophosphate monohydrate], the “Lipase (RFU)” value stood at 920.9967 RFU.

As for `CCN(Cc1cccc(S(=O)(=O)[O-])c1)c1ccc(C(=C2C=CC(=[N+](CC)Cc3cccc(S(=O)(=O)[O-])c3)C=C2)c2ccc(O)cc2S(=O)(=O)[O-])cc1.[Na+].[Na+]` [Fast Green FCF], the “Lipase (RFU)” value is reported as 896.2144 RFU.

Consider `CC1=C(C/C=C(\C)CCC[C@H](C)CCC[C@H](C)CCCC(C)C)C(=O)c2ccccc2C1=O` [Phylloquinone], for which the “Lipase (RFU)” value was found to be 1038.691 RFU.

As to `C[C@H](N)C(=O)NCC(=O)O` [(S)-2-(2-Aminopropanamido)acetic acid] (H-Ala-Gly-OH), the “Lipase (RFU)” value was 993.8076 RFU.

With `Oc1cc(O)c2c(c1)OC1(c3ccc(O)c(O)c3)Oc3cc(O)c4c(c3C2C1O)OC(c1ccc(O)c(O)c1)C(O)C4` (centres unmarked) [Procyanidin A1], the “Lipase (RFU)” value worked out at 1206.886 RFU.

Regarding `O=C([O-])c1ccccc1O.[Na+]` [Sodium Salicylate], the “Lipase (RFU)” value is 847.8959 RFU and 820.8026 RFU.

With `O=C1O[C@H](CO)[C@@H](O)[C@H]1O` [D-Ribonolactone], the “Lipase (RFU)” value came to 702.8507 RFU.

With Cytidine-2′,3′-cyclic monophosphate, the “Lipase (RFU)” value was 1332.358 RFU.

Consider `C[C@H](O)[C@H](O)C1=Nc2c(nc(N)[nH]c2=O)NC1` [7,8-Dihydro-L-biopterin], for which the “Lipase (RFU)” value came to 1090.909 RFU.

On to `COc1ccc(-c2cc(=O)c3c(OC)c(OC)c(OC)c(OC)c3o2)cc1` [Tangeritin], for which the “Lipase (RFU)” value is on record as 1254.653 RFU.

`OC[C@H]1O[C@@H](Oc2cc(O)cc(/C=C/c3ccc(O)c(O)c3)c2)[C@H](O)[C@@H](O)[C@@H]1O` [Astringin]: the “Lipase (RFU)” value was 1052.825 RFU.

Take `COC(=O)[C@]1(C)CC[C@]2(C(=O)O[C@@H]3O[C@H](CO)[C@@H](O)[C@H](O)[C@H]3O)CC[C@]3(C)C(=CC[C@@H]4[C@@]5(C)C[C@H](O)[C@H](O[C@@H]6OC[C@@H](O[C@@H]7O[C@H](CO)[C@@H](O)[C@H](O)[C@H]7O)[C@H](O)[C@H]6O)[C@@](C)(CO)C5CC[C@]43C)[C@H]2C1` (some centres unmarked) [Esculentoside H]: the “Lipase (RFU)” value is given as 1175.483 RFU.

Take `Nc1nc2c(ncn2[C@@H]2O[C@H](COP(=O)([O-])[O-])[C@@H](O)[C@H]2O)c(=O)[nH]1.[Na+].[Na+]` [5′-Guanylic acid (disodium salt)]: the “Lipase (RFU)” value came to 910.9839 RFU.

For the compound `NCC(=O)N[C@@H](CCC(=O)O)C(=O)O` [Glycyl-L-Glutamic Acid] (H-Gly-Glu-OH), the “Lipase (RFU)” value was 846.2286 RFU.

In the case of `O=C(O)c1ccc(O)c(O)c1` [Protocatechuic acid], the “Lipase (RFU)” value was 981.5941 RFU and 972.5566 RFU.

On to 1,4-Dicaffeoylquinic acid, for which the “Lipase (RFU)” value worked out at 794.8464 RFU.

Regarding `Cc1cc(O)c2c(c1)C(=O)c1cccc(O[C@@H]3O[C@H](CO)[C@@H](O)[C@H](O)[C@H]3O)c1C2=O` [Chrysophanol 8-O-glucoside], the “Lipase (RFU)” value stood at 988.4419 RFU.

In the case of Catechin, the “Lipase (RFU)” value is recorded as 945.7654 RFU.

With `C[C@@H]1O[C@@H](O[C@H]2[C@H](Oc3cc(O)c4c(c3)O[C@H](c3ccc(O)c(O)c3)CC4=O)O[C@H](CO)[C@@H](O)[C@@H]2O)[C@H](O)[C@H](O)[C@H]1O` [Neoeriocitrin], the “Lipase (RFU)” value is listed as 1015.344 RFU.

For the compound `C[C@@H](CN)C(=O)O` [(S)-b-aminoisobutyric acid], the “Lipase (RFU)” value is given as 859.5436 RFU.

For the compound `CC(O)CO` (centres unmarked) [1,2-Propanediol], the “Lipase (RFU)” value came out at 1150.168 RFU.

For `CC(C)=CCC[C@](C)(O)[C@H]1CC[C@]2(C)[C@@H]1[C@H](O)C[C@@H]1[C@@]3(C)CC[C@H](O)C(C)(C)[C@@H]3[C@@H](O[C@@H]3O[C@H](CO)[C@@H](O)[C@H](O)[C@H]3O[C@@H]3OC[C@@H](O)[C@H](O)[C@H]3O)C[C@]12C` [Notoginsenoside R2], the “Lipase (RFU)” value was 955.4855 RFU.

Turning to `C[C@@H]1O[C@@H](O[C@H]2[C@H](O[C@H]3CC[C@]4(C)[C@H]5CC=C6[C@@H]7CC(C)(C)CC[C@]7(C(=O)O[C@@H]7O[C@H](CO[C@@H]8O[C@H](CO)[C@@H](O[C@@H]9O[C@@H](C)[C@H](O)[C@@H](O)[C@H]9O)[C@H](O)[C@H]8O)[C@@H](O)[C@H](O)[C@H]7O)CC[C@@]6(C)[C@]5(C)CC[C@H]4C3(C)C)OC[C@H](O)[C@@H]2O)[C@H](O)[C@H](O)[C@H]1O` [Hederasaponin B], the “Lipase (RFU)” value is recorded as 619.4985 RFU.

For `COC1=C(OC)C(=O)C(C/C=C(\C)CC/C=C(\C)CC/C=C(\C)CC/C=C(\C)CC/C=C(\C)CC/C=C(\C)CC/C=C(\C)CC/C=C(\C)CCC=C(C)C)=C(C)C1=O` [Coenzyme Q9], the “Lipase (RFU)” value is on record as 1106.833 RFU.

For the compound `CN(CC(=O)O)C(=N)NP(=O)(O)O` [Phosphocreatine], the “Lipase (RFU)” value amounted to 915.1867 RFU.

Turning to `NC(=O)c1ccc[n+]([C@@H]2O[C@H](COP(=O)([O-])OP(=O)(O)OC[C@H]3O[C@@H](n4cnc5c(N)ncnc54)[C@H](O)[C@@H]3O)[C@@H](O)[C@H]2O)c1` [NAD+], the “Lipase (RFU)” value was found to be 662.6014 RFU.

Consider `CCCCCCCCC(=O)NCc1ccc(O)c(OC)c1` [Nonivamide], for which the “Lipase (RFU)” value was 911.9923 RFU and 1070.28 RFU.

Regarding `CC(C)=CCc1c(O)c(CC=C(C)C)c2oc3c(O)cccc3c(=O)c2c1O` [Compound 8-Deoxygartanin], the “Lipase (RFU)” value was 1168.142 RFU.

As to `N[C@H]1CCOC1=O` [L-Homoserine Lactone], the “Lipase (RFU)” value is recorded as 1108.032 RFU.

Take `C[Se]C[C@H](N)C(=O)O` [Se-Methylselenocysteine]: the “Lipase (RFU)” value amounted to 889.6084 RFU.

Regarding `CC(CC(=O)C[C@@H](C)[C@H]1CC(=O)[C@@]2(C)C3=C(C(=O)C[C@]12C)[C@@]1(C)CC[C@H](O)C(C)(C)[C@@H]1C[C@@H]3O)C(=O)O` (some centres unmarked) [Ganoderic acid B], the “Lipase (RFU)” value amounted to 879.1619 RFU.

In the case of `CC(C)=CCC[C@](C)(O[C@@H]1O[C@H](CO)[C@@H](O)[C@H](O)[C@H]1O)[C@H]1CC[C@]2(C)[C@@H]1[C@H](O)C[C@@H]1[C@@]3(C)CC[C@H](O[C@@H]4O[C@H](CO)[C@@H](O)[C@H](O)[C@H]4O)C(C)(C)[C@@H]3CC[C@]12C` [Ginsenoside F2], the “Lipase (RFU)” value is reported as 926.1742 RFU.

`CC1=C(C=O)C(C)(C)C[C@H](O[C@@H]2O[C@H](CO)[C@@H](O)[C@H](O)[C@H]2O)C1` [Picrocrocin]: the “Lipase (RFU)” value was 633.2514 RFU.

For `CCN(Cc1cccc(S(=O)(=O)[O-])c1)c1ccc(C(=C2C=CC(=[N+](CC)Cc3cccc(S(=O)(=O)[O-])c3)C=C2)c2ccccc2S(=O)(=O)[O-])cc1.[Na+].[Na+]` [Brilliant Blue FCF], the “Lipase (RFU)” value is listed as 652.1115 RFU.

Consider `CC1=C(C)C(=O)C(CC[C@](C)(O)CCC[C@H](C)CCC[C@H](C)CCCC(C)C)=C(C)C1=O` [D-α-Tocopherylquinone], for which the “Lipase (RFU)” value is recorded as 598.2224 RFU.

As to `CC(=O)N[C@@H](CO)[C@@H](O)[C@H](O)[C@H](O)CO` [N-Acetyl-D-Glucosaminitol], the “Lipase (RFU)” value is 1055.486 RFU.

With `C[C@H](CCC(=O)NCCS(=O)(=O)O)[C@H]1CC[C@H]2[C@@H]3[C@H](O)C[C@@H]4C[C@H](O)CC[C@]4(C)[C@H]3C[C@H](O)[C@]12C` [Taurocholic acid (sodium)], the “Lipase (RFU)” value was 1062.302 RFU and 748.8784 RFU.

Take `C=CC(C)(CCC=C(C)C)OC(C)=O` (centres unmarked) [Linalyl acetate]: the “Lipase (RFU)” value is 753.0162 RFU and 717.2876 RFU.

Take `CC(C)=CCC/C(C)=C/CC/C(C)=C/CC[C@]1(C)CCc2c(C)c(O)cc(C)c2O1` [β-Tocotrienol]: the “Lipase (RFU)” value is reported as 668.6336 RFU.

The record behind these values is patent US12507703B2, “Methods, devices and compositions for preserving human milk” (The Trustees of Princeton University, priority 2023, dated 2025).
